What was measured:
Format in all cases: in vivo, Cydia pomonella
male codling moth = assay: Pheromone preference paired-trap test: pheromone alone vs pheromone + HPV; details: for % of pheromone-alone capture (line under HPV + Pheromone value) / Male CM Captured, HPV + Pheromone Trap: ± SEM / Male CM Captured, HPV + Pheromone Trap ± SEM / Average % Change in ♂♂ CM Capture: Table 8; for Average % Change in ♂♂ CM Capture: average of four orchards
Excerpt: Interaction of synthetic apple and pear odor blends, described above in Table 2, and their effect on the attractancy of synthetic pheromone to codling moth was also studied. For that purpose, series of paired-traps containing pheromone alone or pheromone in combination with synthetic host plant volatile blends were placed in walnut orchards.
Interaction of individual synthetic host plant volatiles or blends on the attractiveness of synthetic male pheromone to male codling moth administered in paired traps with pheromone alone or with pheromone and attractant 10 mg/red septum was also studied.
Pheromone traps (sticky wing traps, Trécé, Inc.,) were hung as pairs: a pheromone only baited-trap vs. a pheromone+HPV blend-baited trap. The two traps of a test pair were attached in close competitive proximity (120 cm apart) on a common hanger bar (PVC pipe). The paired-trap bars were hung 5-6 meters high on the outer canopies of trees. A single pair-trap was hung per tree and different replicate test trees were separated by five rows in a matrix through the orchard. Each pheromone trap was baited with ½ of a commercial pheromone-impregnated rubber septum (Trécé, Inc.). Septa were sectioned by a razor blade. The HPV blends evaporated from their own separate impregnated rubber septa containing 10 mg diluted in hexane/septum).
Tests were conducted in a Harley English walnut orchard. Tests spanned the entire two year seasons April-October with traps checked, males sexed, counted and removed every 2-7 days. Significant effect on pheromone trap capture were judged by paired tests either T-test or a nonparametric test.

codling moth [1] = assay: Septa colour and loading dose trap study; parameters: ♂♂ ± SEM / ♀♀ ± SEM: unit not given here
Method: Since there have been differences observed between traps containing gray, white or red septa, a study was performed to determine the significance of the specific septa and their effect on the increase or decrease of attractancy. […]

codling moth [2] = assay: Trap capture with purified (2E,4E) and (2E,4Z) 2,4-decadienoic acid esters; details: 1 mg dose/gray septum; four orchards; means of 21 trap checks
Method: In this study, test compounds were highly purified synthetic samples. The purities of the compounds are expressed as percentages. Individual traps were baited with 1 mg dose/gray septum; five replicate blocks in four orchards; means of 21 total trap checks.

[3] = 0.1 mg A, Gray Septa, High (high population conventional orchard)
[4] = 0.1 mg A, Gray Septa, Low (low population organic orchard)
[5] = 0.1 mg A, Red Septa, High (high population conventional orchard)
[6] = 0.1 mg A, Red Septa, Low (low population organic orchard)
[7] = 1.0 mg A, Gray Septa, High (high population conventional orchard)
[8] = 1.0 mg A, Gray Septa, Low (low population organic orchard)
[9] = 1.0 mg A, Red Septa, Low (low population organic orchard)
[10] = 3 mg A, Gray Septa, High (high population conventional orchard)
[11] = 3 mg A, Gray Septa, Low (low population organic orchard)
[12] = 3 mg A, Red Septa, High (high population conventional orchard)
[13] = 3 mg A, Red Septa, Low (low population organic orchard)
[14] = 10 mg A, Gray Septa, High (high population conventional orchard)
[15] = 10 mg A, Gray Septa, Low (low population organic orchard)
[16] = 10 mg A, Red Septa, High (high population conventional orchard)
[17] = 10 mg A, Red Septa, Low (low population organic orchard)
[18] = 20 mg A, Gray Septa, High (high population conventional orchard)
[19] = 20 mg A, Gray Septa, Low (low population organic orchard)
[20] = 20 mg A, Red Septa, High (high population conventional orchard)
[21] = 20 mg A, Red Septa, Low (low population organic orchard)
[22] = Gray Septa, High (high population conventional orchard)
[23] = Gray Septa, Low (low population organic orchard)
[24] = Red Septa, High (high population conventional orchard)
[25] = Red Septa, Low (low population organic orchard)

CC(C)CCO [3-Methyl Butan-1-ol]
% of pheromone-alone capture (line under HPV + Pheromone value) (male codling moth; Orchard #1): 118% | Male CM Captured, HPV + Pheromone Trap: ± SEM (male codling moth; Orchard #1, 10 mg/red septum): 1.29 ± 0.25 ♂♂/trap/night | % of pheromone-alone capture (line under HPV + Pheromone value) (male codling moth; Orchard #2): 86% | Male CM Captured, HPV + Pheromone Trap ± SEM (male codling moth; Orchard #2, 10 mg/red septum): 1.19 ± 0.22 ♂♂/trap/night | % of pheromone-alone capture (line under HPV + Pheromone value) (male codling moth; Orchard #3): 95% | Male CM Captured, HPV + Pheromone Trap: ± SEM (male codling moth; Orchard #3, 10 mg/red septum): 2.82 ± 0.56 ♂♂/trap/night | % of pheromone-alone capture (line under HPV + Pheromone value) (male codling moth; Orchard #4): 115% | Male CM Captured, HPV + Pheromone Trap: ± SEM (male codling moth; Orchard #4, 10 mg/red septum): 2.91 ± 0.49 ♂♂/trap/night | Average % Change in ♂♂ CM Capture (male codling moth): 104%

C=C/C(C)=C/CC=C(C)C [(E)-β-Ocimene]
% of pheromone-alone capture (line under HPV + Pheromone value) (male codling moth; Orchard #1): 135% | Male CM Captured, HPV + Pheromone Trap: ± SEM (male codling moth; Orchard #1, 10 mg/red septum): 1.40 ± 0.25 ♂♂/trap/night | % of pheromone-alone capture (line under HPV + Pheromone value) (male codling moth; Orchard #2): 114% | Male CM Captured, HPV + Pheromone Trap ± SEM (male codling moth; Orchard #2, 10 mg/red septum): 0.88 ± 0.17 ♂♂/trap/night | % of pheromone-alone capture (line under HPV + Pheromone value) (male codling moth; Orchard #3): 102% | Male CM Captured, HPV + Pheromone Trap: ± SEM (male codling moth; Orchard #3, 10 mg/red septum): 2.38 ± 0.34 ♂♂/trap/night | % of pheromone-alone capture (line under HPV + Pheromone value) (male codling moth; Orchard #4): 96% | Average % Change in ♂♂ CM Capture (male codling moth): 112%

CCCCC/C=C\C=C\C(=O)OCC [A, ethyl (2E,4Z)-2,4-decadienoate]
♀♀ ± SEM (codling moth [1]; [3]): 1.40 ± 0.52 | ♂♂ ± SEM (codling moth [1]; [3]): 5.88 ± 1.80 | ♀♀ ± SEM (codling moth [1]; [4]): 1.05 ± 0.49 | ♂♂ ± SEM (codling moth [1]; [4]): 0.97 ± 0.47 | ♀♀ ± SEM (codling moth [1]; [5]): 2.76 ± 0.80 | ♂♂ ± SEM (codling moth [1]; [5]): 1.04 ± 0.41 | ♀♀ ± SEM (codling moth [1]; [6]): 0.43 ± 0.18 | ♂♂ ± SEM (codling moth [1]; [6]): 0.78 ± 0.55 | ♀♀ ± SEM (codling moth [1]; [7]): 4.77 ± 1.34 | ♂♂ ± SEM (codling moth [1]; [7]): 3.86 ± 1.55 | ♀♀ ± SEM (codling moth [1]; [8]): 0.84 ± 0.30 | ♂♂ ± SEM (codling moth [1]; [8]): 1.13 ± 0.63 | ♀♀ ± SEM (codling moth [1]; 1.0 mg A, Red Septa, High (high population conventional orchard)): 4.12 ± 1.37 | ♀♀ ± SEM (codling moth [1]; [9]): 1.06 ± 0.49 | ♂♂ ± SEM (codling moth [1]; [9]): 1.38 ± 0.60 | ♀♀ ± SEM (codling moth [1]; [10]): 5.25 ± 1.33 | ♂♂ ± SEM (codling moth [1]; [10]): 6.20 ± 1.25 | ♀♀ ± SEM (codling moth [1]; [11]): 1.18 ± 0.37 | ♂♂ ± SEM (codling moth [1]; [11]): 2.02 ± 0.72 | ♀♀ ± SEM (codling moth [1]; [12]): 6.46 ± 1.98 | ♂♂ ± SEM (codling moth [1]; [12]): 4.40 ± 1.28 | ♀♀ ± SEM (codling moth [1]; [13]): 0.69 ± 0.26 | ♂♂ ± SEM (codling moth [1]; [13]): 0.78 ± 0.35 | ♀♀ ± SEM (codling moth [1]; [14]): 5.77 ± 1.30 | ♂♂ ± SEM (codling moth [1]; [14]): 3.59 ± 0.92 | ♀♀ ± SEM (codling moth [1]; [15]): 1.28 ± 0.33 | ♂♂ ± SEM (codling moth [1]; [15]): 1.29 ± 0.36 | ♀♀ ± SEM (codling moth [1]; [16]): 7.04 ± 1.90 | ♂♂ ± SEM (codling moth [1]; [16]): 4.25 ± 0.99 | ♀♀ ± SEM (codling moth [1]; [17]): 0.57 ± 0.15 | ♂♂ ± SEM (codling moth [1]; [17]): 0.87 ± 0.41 | ♀♀ ± SEM (codling moth [1]; [18]): 3.59 ± 1.46 | ♂♂ ± SEM (codling moth [1]; [18]): 6.14 ± 1.46 | ♀♀ ± SEM (codling moth [1]; [19]): 2.83 ± 1.07 | ♂♂ ± SEM (codling moth [1]; [19]): 2.97 ± 0.97 | ♀♀ ± SEM (codling moth [1]; [20]): 5.43 ± 1.78 | ♂♂ ± SEM (codling moth [1]; [20]): 2.87 ± 0.88 | ♀♀ ± SEM (codling moth [1]; [21]): 0.66 ± 0.15 | ♂♂ ± SEM (codling moth [1]; [21]): 0.94 ± 0.20 | ♂♂ ± SEM (50 mg A) (codling moth [1]; [22]): 10.15 ± 2.04 | ♂♂ ± SEM (under 50 mg A) (codling moth [1]; [22]): 6.18 ± 1.60 | ♂♂ ± SEM (50 mg A) (codling moth [1]; [23]): 1.79 ± 0.69 | ♂♂ ± SEM (under 50 mg A) (codling moth [1]; [23]): 2.04 ± 0.83 | ♂♂ ± SEM (50 mg A) (codling moth [1]; [24]): 7.30 ± 2.00 | ♂♂ ± SEM (under 50 mg A) (codling moth [1]; [24]): 3.63 ± 0.93 | ♂♂ ± SEM (50 mg A) (codling moth [1]; [25]): 0.74 ± 0.24 | ♂♂ ± SEM (under 50 mg A) (codling moth [1]; [25]): 0.57 ± 0.18

CCCCO [Butan-1-ol]
% of pheromone-alone capture (line under HPV + Pheromone value) (male codling moth; Orchard #1): 101% | Male CM Captured, HPV + Pheromone Trap: ± SEM (male codling moth; Orchard #1, 10 mg/red septum): 0.74 ± 0.17 ♂♂/trap/night | % of pheromone-alone capture (line under HPV + Pheromone value) (male codling moth; Orchard #2): 117% | Male CM Captured, HPV + Pheromone Trap ± SEM (male codling moth; Orchard #2, 10 mg/red septum): 2.73 ± 0.56 ♂♂/trap/night | % of pheromone-alone capture (line under HPV + Pheromone value) (male codling moth; Orchard #3): 122% | Male CM Captured, HPV + Pheromone Trap: ± SEM (male codling moth; Orchard #3, 10 mg/red septum): 2.95 ± 0.43 ♂♂/trap/night | % of pheromone-alone capture (line under HPV + Pheromone value) (male codling moth; Orchard #4): 96% | Male CM Captured, HPV + Pheromone Trap: ± SEM (male codling moth; Orchard #4, 10 mg/red septum): 2.96 ± 0.62 ♂♂/trap/night | Average % Change in ♂♂ CM Capture (male codling moth): 109%

CCCCC/C=C/C=C/C(=O)OCCCC [Butyl (2E,4E)-2,4-Decadienoate]
FEMALE CM Captured: ♂♂/trap/night ± SEM (codling moth [2]): 0 ♀♀/trap/night | MALE CM Captured: ♂♂/trap/night ± SEM (codling moth [2]): 0.02 ± 0.02 ♂♂/trap/night | Total CM Captured: CM/trap/night ± SEM (codling moth [2]): 0.02 ± 0.02 CM/trap/night

CCCCC/C=C\C=C\C(=O)OCC [Ethyl (2E,4Z)-2,4-Decadienoate, #1 (95.3%)]
MALE CM Captured: ♂♂/trap/night ± SEM (codling moth [2]): 1.67 ± 0.41 ♂♂/trap/night | Total CM Captured: CM/trap/night ± SEM (codling moth [2]): 4.49 ± 1.29 CM/trap/night

CCCCC/C=C\C=C\C(=O)OCC [Ethyl (2E,4Z)-2,4-Decadienoate, #2 (88.5%)]
MALE CM Captured: ♂♂/trap/night ± SEM (codling moth [2]): 1.89 ± 0.79 ♂♂/trap/night | Total CM Captured: CM/trap/night ± SEM (codling moth [2]): 4.25 ± 1.43 CM/trap/night

C=C1/C=C/[C@H](C(C)C)CC/C(C)=C/CC1 [Germacrene-D]
% Change (Ph+HPV/Phxl00) in Male CM Capture (male codling moth; Table 9): 109% | Impact of HPV Blend on Pheromone Attractancy to Male CM (male codling moth; Table 9): No Effect | Male CM Capture with Pheromone + HPV Blend: ♂♂/trap/night ± SEM (male codling moth; Table 9, 10 mg/red septum): 0.86 ± 0.19 ♂♂/trap/night
